Source: article PMC10890530, “Meirols A–C: Bioactive Catecholic Compounds from the Marine-Derived Fungus Meira sp. 1210CH-42” (Marine Drugs, 2024)
Read-outs that look alike come from different tables or passages of the source.

Experiments:
[1] = DPPH radical scavenging activity assay; conditions: half maximal effective concentration; triplicate; read-out: DPPH Radical Scavenging Activity (EC50 ± SD)
Experimental: The DPPH radical scavenging activities of 1–4 were determined by the reported method. In a 96-well plate, 100 μL of sample solution (in MeOH) was mixed with 100 μL of DPPH solution (0.16 mM in MeOH), shaken several times, and then incubated at room temperature for 30 min. The absorbance at 517 nm was recorded. Ascorbic acid was used as the positive control, and the experiments were performed in triplicate.

α-glucosidase = α-glucosidase inhibitory activity assay (pNPG hydrolysis); assay type: biochemical; conditions: 50% inhibitory concentration; triplicate; read-out: α-Glucosidase Inhibitory Activity (IC50 ± SD)
Experimental: The α-glucosidase inhibitory activity was determined by measuring the absorbance increase resulting from the hydrolysis of p-nitrophenyl-α-D-glucopyranoside (pNPG, TCI) by α-glucosidase at 405 nm using a microplate reader, according to the reference to previously reported literature. The 130 μL sample solution (in 0.1 mM PBS) with the 30 μL α-glucosidase solution (0.2 U/mL) was incubated at 37 °C for 10 min. Subsequently, 40 μL of 5 mM pNPG was added. The reaction mixture was further incubated at 37 °C for 20 min. The α-glucosidase inhibitory activity was determined using a microplate reader at 405 nm. The negative control was prepared by substituting PBS buffer for the sample in the same way as the test.

[2] = tested on: NALM6, B cell acute lymphocytic leukemia; assay: Cytotoxicity assay, NALM6 blood cancer cell line; assay type: cell-based; conditions: triplicate, read-out: Cytotoxic Activity (GI50 ± SD, μM) NALM6
Experimental: (§1) NMR spectra were acquired with a Bruker AVANCE III 600 spectrometer (Bruker Biospin GmbH, Rheinstetten, Germany) with a 3 mm probe operating at 600 MHz (^1H) and 150 MHz (^13C). Chemical shifts were expressed in ppm with reference to the solvent peaks (δH 3.31 and δC 49.15 ppm for CD3OD). UV spectra were recorded with a Shimadzu UV-1650PC spectrophotometer (Shimadzu Corporation, Kyoto, Japan). IR spectra were obtained on an OPUS FT/IR-ALPHA II spectrophotometer (Bruker OPTIK GmbH & Co. KG, Ettlingen, Germany). Optical rotations were measured with a Rudolph analytical Autopol III S2 polarimeter (Rudolph Research Analytical, Hackettstown, NJ, USA). LR-ESIMS data were obtained with an ISQ EM mass spectrometer. HR-ESIMS data were obtained with a Waters SYNPT G2 Q-TOF mass spectrometer (Waters Corporation, Milford, MA, USA) at the Korea Basic Science Institute (KBSI) in Cheongju, Republic of Korea. ECD spectra were recorded with a JASCO J-1500 circular dichroism spectrometer (JASCO Corporation, Tokyo, Japan) at the Center for Research Facilities, Changwon National University, in Changwon, Republic of Korea. HPLC was performed using a BLS-Class pump (Teledyne SSI, Inc., State College, PA 16803, USA) with a Shodex RI-201H refractive index detector (Shoko Scientific Co., Ltd., Yokohama, Japan). Columns for HPLC were YMC-Triart C18 (250 mm × 10 mm, 5 μm), YMC-Triart C8 (250 mm × 10 mm, 5 μm), and YMC-CHIRAL PREP CD PM (250 mm × 4.6 mm, S-10 μm). RP silica gel (YMC-Gel ODS-A, 12 nm, S-75 μm) was used for open-column chromatography. Organic solvents were purchased as HPLC grade, and ultrapure waters were obtained from the Milipore Mili-Q Direct 8 system. The reagents used in the bioassay were purchased from Sigma-Aldrich and Tokyo Chemical Industry. Cancer cell lines were purchased from the Japanese Cancer Research Resources Bank (JCRB) (NUGC-3, JCRB Cell Bank/Cat. # JCRB0822), the DSMZ-German Collection of Microorganisms and Cell Cultures (RPMI-8402, DSMZ/Cat # ACC 290; WSU-DLCL2, DSMZ/Cat # ACC 575), and the American Type Culture Collection (ATCC) (PC-3, ATCC/Cat. # CRL-1435; MDA-MB-231, ATCC/Cat. # HTB-26; ACHN, ATCC/Cat. # CRL-1611; NCI-H23, ATCC/Cat. # CRL-5800; HCT-15, ATCC/Cat. # CCL-225; HL-60, ATCC/Cat. # CCL-240; Raji, ATCC/Cat # CCL-86; K562, ATCC/Cat # CCL-243; NALM6, ATCC/Cat # CRL-3273; U266, ATCC/Cat # TIB-196).
(§2) The cytotoxic activities of 1–4 were measured using the CellTiter-Glo luminescent cell viability assay (Promega, Madison, WI, USA) and conducted by the […], as previously described. The luminescence signal was quantified using a GloMax-Multi Detection System (Promega, Madison, WI, USA), and GI50 values were determined utilizing a relative GI50 model in GraphPad Prism (GraphPad, San Diego, CA, USA). Doxorubicin was used as the positive control.

[3] = tested on: RPMI-8402, T cell acute lymphocytic leukemia; assay: Cytotoxicity assay, RPMI-8402 blood cancer cell line; assay type: cell-based; conditions: Homo sapiens, 50% growth inhibitory concentration, triplicate, read-out: Cytotoxic Activity (GI50 ± SD, μM) RPMI-8402
Experimental: as §1, §2

[4] = 50% growth inhibitory concentration
[5] = Homo sapiens, NALM-6, 50% growth inhibitory concentration

SMILES | EC50 [1] [µM] | IC50 (α-glucosidase) [µM] | GI50 [2, 4] [µM] | GI50 [2, 5] [µM] | GI50 [3] [µM]
O=C1O[C@H]([C@@H](O)CO)C(O)=C1O [Ascorbic acid, reference compound] | 7.81 ± 0.25 |  |  |  | 
O=C1CCc2c1ccc(O)c2O [Compound 1, 4,5-dihydroxyindan-1-one] | 7.47 ± 0.13 | 184 ± 2.93 | 9.47 ± 0.41 | 9.48 | 21 ± 0.47
O=C1NCc2c1ccc(O)c2O [Compound 2, 4,5-dihydroxyisoindolin-1-one] | 6.82 ± 0.06 | 199.7 ± 1.87 | 29.6 ± 2.27 | 29.4 | > 30
O=C1C[C@@H](O)c2c1ccc(O)c2O [Compound 3, meirol B] | 6.01 ± 0.07 | 367.4 ± 3.01 |  | > 30 | > 30
O=C1c2ccc(O)c(O)c2C[C@@H]1O [Compound 4, meirol C] | 6.2 ± 0.12 | > 555 |  | > 30 | > 30
COc1cccc2c1C(=O)c1c(O)c3c(c(O)c1C2=O)C[C@@](O)(C(=O)CO)C[C@@H]3O[C@H]1C[C@H](N)[C@H](O)[C@H](C)O1 [Doxorubicin, reference compound] |  |  |  | 0.003 ± 0.0006 | 0.015 ± 0.0013
